Measured values: PubChem BioAssay (NCI)
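Where inhibition never reached the appropriate level, the endpoint shown equals the highest concentration tested. Otherwise, values were interpolated linearly from a five-concentration, 48-hour dose response in 96-well plates. GI50 marks 50% less growth. TGI: total growth inhibition.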

Key:
Assay in all cases: NCI tumour cell line growth inhibition, 48 h
UACC-62 melanoma = test system: UACC-62 melanoma
NCI-H23 lung = test system: NCI-H23 lung
SK-MEL-5 melanoma = test system: SK-MEL-5 melanoma
HCT-116 colon = test system: HCT-116 colon
HS 578T breast = test system: HS 578T breast
BT-549 breast = test system: BT-549 breast
SNB-19 CNS = test system: SNB-19 CNS
SK-MEL-28 melanoma = test system: SK-MEL-28 melanoma
NCI/ADR-RES ovarian = test system: NCI/ADR-RES ovarian
RXF 393 renal = test system: RXF 393 renal
IGROV1 ovarian = test system: IGROV1 ovarian
ACHN renal = test system: ACHN renal
MDA-MB-435 = test system: MDA-MB-435
A549 NSCLC = test system: A549 NSCLC
SNB-75 CNS = test system: SNB-75 CNS
SK-OV-3 ovarian = test system: SK-OV-3 ovarian
HCT-15 colon = test system: HCT-15 colon
NCI-H522 lung = test system: NCI-H522 lung
HL-60(TB) leukemia = test system: HL-60(TB) leukemia
DU-145 prostate = test system: DU-145 prostate
U251 CNS = test system: U251 CNS
CAKI-1 renal = test system: CAKI-1 renal
MALME-3M melanoma = test system: MALME-3M melanoma
OVCAR-8 ovarian = test system: OVCAR-8 ovarian
OVCAR-5 ovarian = test system: OVCAR-5 ovarian
EKVX NSCLC = test system: EKVX NSCLC
HCC-2998 colon = test system: HCC-2998 colon
T-47D breast = test system: T-47D breast
SF-539 CNS = test system: SF-539 CNS
OVCAR-4 ovarian = test system: OVCAR-4 ovarian
KM12 colon = test system: KM12 colon
HOP-92 NSCLC = test system: HOP-92 NSCLC
MOLT-4 leukemia = test system: MOLT-4 leukemia
OVCAR-3 ovarian = test system: OVCAR-3 ovarian
SF-268 CNS = test system: SF-268 CNS
SW-620 colon = test system: SW-620 colon
A498 renal = test system: A498 renal
UACC-257 melanoma = test system: UACC-257 melanoma
LOX IMVI melanoma = test system: LOX IMVI melanoma
NCI-H226 lung = test system: NCI-H226 lung
NCI-H460 lung = test system: NCI-H460 lung
SN12C renal = test system: SN12C renal
MCF7 breast = test system: MCF7 breast
K-562 leukemia = test system: K-562 leukemia
COLO 205 colon = test system: COLO 205 colon
PC-3 prostate = test system: PC-3 prostate
MDA-MB-468 breast = test system: MDA-MB-468 breast
SK-MEL-2 melanoma = test system: SK-MEL-2 melanoma
MDA-MB-231 breast = test system: MDA-MB-231 breast
CCRF-CEM leukemia = test system: CCRF-CEM leukemia
M14 melanoma = test system: M14 melanoma
SF-295 CNS = test system: SF-295 CNS
TK-10 renal = test system: TK-10 renal
786-0 renal = test system: 786-0 renal
HT29 colon = test system: HT29 colon
UO-31 renal = test system: UO-31 renal
RPMI-8226 leukemia = test system: RPMI-8226 leukemia

With `COc1ccc(NC(=O)CSc2nnc(-c3ccc(-c4nc5ccccc5[nH]4)cc3)o2)cc1` the GI50 (UACC-62 melanoma) was 1.63 µM, the TGI (UACC-62 melanoma) was 3.04 µM and the GI50 (NCI-H23 lung) was 1.93 µM. For the same molecule, the TGI (NCI-H23 lung) was 3.84 µM, the GI50 (SK-MEL-5 melanoma) was 1.91 µM and the TGI (SK-MEL-5 melanoma) was 3.94 µM. The GI50 (HCT-116 colon) was 2.38 µM, the TGI (HCT-116 colon) was 5.9 µM and the GI50 (HS 578T breast) was 2.56 µM. It also gave a TGI (HS 578T breast) of 7.29 µM, a GI50 (BT-549 breast) of 1.94 µM and a TGI (BT-549 breast) of 4.09 µM. The GI50 (SNB-19 CNS) was 2.04 µM, the TGI (SNB-19 CNS) was 4.04 µM and the GI50 (SK-MEL-28 melanoma) was 1.76 µM. The TGI (SK-MEL-28 melanoma) was 3.21 µM, the GI50 (NCI/ADR-RES ovarian) was 9.32 µM and the TGI (NCI/ADR-RES ovarian) was over 100 µM. For the same molecule, the GI50 (RXF 393 renal) was 1.84 µM, the TGI (RXF 393 renal) was 3.56 µM and the GI50 (IGROV1 ovarian) was 2.17 µM. For the same molecule, the TGI (IGROV1 ovarian) was 5.06 µM, the GI50 (ACHN renal) was 2.4 µM and the TGI (ACHN renal) was 5.86 µM. The GI50 (MDA-MB-435) was 2.08 µM, the TGI (MDA-MB-435) was 4.55 µM and the GI50 (A549 NSCLC) was 1.97 µM. It also gave a TGI (A549 NSCLC) of 4.22 µM, a GI50 (SNB-75 CNS) of 1.83 µM and a TGI (SNB-75 CNS) of 3.89 µM. The GI50 (SK-OV-3 ovarian) was 2.36 µM, the TGI (SK-OV-3 ovarian) was 4.94 µM and the GI50 (HCT-15 colon) was 2.3 µM. For the same molecule, the TGI (HCT-15 colon) was 5.67 µM, the GI50 (NCI-H522 lung) was 1.72 µM and the TGI (NCI-H522 lung) was 3.4 µM. It also gave a GI50 (HL-60(TB) leukemia) of 5.04 µM, a TGI (HL-60(TB) leukemia) of over 100 µM and a GI50 (DU-145 prostate) of 2.77 µM. For the same molecule, the TGI (DU-145 prostate) was 7.62 µM, the GI50 (U251 CNS) was 1.83 µM and the TGI (U251 CNS) was 3.36 µM. The GI50 (CAKI-1 renal) was 1.89 µM, the TGI (CAKI-1 renal) was 3.83 µM and the GI50 (MALME-3M melanoma) was 1.69 µM. It also gave a TGI (MALME-3M melanoma) of 3.14 µM, a GI50 (OVCAR-8 ovarian) of 1.85 µM and a TGI (OVCAR-8 ovarian) of 3.66 µM. The GI50 (OVCAR-5 ovarian) was 2.28 µM, the TGI (OVCAR-5 ovarian) was 5.23 µM and the GI50 (EKVX NSCLC) was 1.98 µM. It also gave a TGI (EKVX NSCLC) of 4.21 µM, a GI50 (HCC-2998 colon) of 12.1 µM and a TGI (HCC-2998 colon) of 34.6 µM. The GI50 (T-47D breast) was 3.1 µM, the TGI (T-47D breast) was 9.51 µM and the GI50 (SF-539 CNS) was 1.79 µM. It also gave a TGI (SF-539 CNS) of 3.42 µM, a GI50 (OVCAR-4 ovarian) of 2.5 µM and a TGI (OVCAR-4 ovarian) of 6.64 µM. The GI50 (KM12 colon) was 3.49 µM, the TGI (KM12 colon) was 13.3 µM and the GI50 (HOP-92 NSCLC) was 1.77 µM. The TGI (HOP-92 NSCLC) was 3.79 µM, the GI50 (MOLT-4 leukemia) was 3.23 µM and the TGI (MOLT-4 leukemia) was over 100 µM. The GI50 (OVCAR-3 ovarian) was 2.29 µM, the TGI (OVCAR-3 ovarian) was 4.56 µM and the GI50 (SF-268 CNS) was 2.02 µM. It also gave a TGI (SF-268 CNS) of 4.2 µM, a GI50 (SW-620 colon) of 2.34 µM and a TGI (SW-620 colon) of 6.39 µM. It also gave a GI50 (A498 renal) of 2.1 µM, a TGI (A498 renal) of 5.75 µM and a GI50 (UACC-257 melanoma) of 1.92 µM. For the same molecule, the TGI (UACC-257 melanoma) was 3.93 µM, the GI50 (LOX IMVI melanoma) was 1.81 µM and the TGI (LOX IMVI melanoma) was 3.38 µM. For the same molecule, the GI50 (NCI-H226 lung) was 1.92 µM, the TGI (NCI-H226 lung) was 4.17 µM and the GI50 (NCI-H460 lung) was 2.01 µM. It also gave a TGI (NCI-H460 lung) of 4.32 µM, a GI50 (SN12C renal) of 1.84 µM and a TGI (SN12C renal) of 3.59 µM. For the same molecule, the GI50 (MCF7 breast) was 2.35 µM, the TGI (MCF7 breast) was 6.4 µM and the GI50 (K-562 leukemia) was 3.65 µM. The TGI (K-562 leukemia) was over 100 µM, the GI50 (COLO 205 colon) was 4.51 µM and the TGI (COLO 205 colon) was 19.3 µM. It also gave a GI50 (PC-3 prostate) of 2.06 µM, a TGI (PC-3 prostate) of 3.96 µM and a GI50 (MDA-MB-468 breast) of 2.51 µM. For the same molecule, the TGI (MDA-MB-468 breast) was 6.44 µM, the GI50 (SK-MEL-2 melanoma) was 2.07 µM and the TGI (SK-MEL-2 melanoma) was 4.45 µM. It also gave a GI50 (MDA-MB-231 breast) of 1.89 µM, a TGI (MDA-MB-231 breast) of 3.45 µM and a GI50 (CCRF-CEM leukemia) of 3.03 µM. For the same molecule, the TGI (CCRF-CEM leukemia) was over 100 µM, the GI50 (M14 melanoma) was 2.3 µM and the TGI (M14 melanoma) was 5.27 µM. For the same molecule, the GI50 (SF-295 CNS) was 1.79 µM, the TGI (SF-295 CNS) was 3.34 µM and the GI50 (TK-10 renal) was 3.09 µM. For the same molecule, the TGI (TK-10 renal) was 10.8 µM, the GI50 (786-0 renal) was 1.92 µM and the TGI (786-0 renal) was 3.63 µM. It also gave a GI50 (HT29 colon) of 1.82 µM, a TGI (HT29 colon) of 3.42 µM and a GI50 (UO-31 renal) of 2.8 µM. It also gave a TGI (UO-31 renal) of 10.4 µM, a GI50 (RPMI-8226 leukemia) of 3.42 µM and a TGI (RPMI-8226 leukemia) of over 100 µM.
